Assay results as given in article PMC9234963, “Optimizing Shape Complementarity Enables the Discovery of Potent Tricyclic BCL6 Inhibitors” (Journal of Medicinal Chemistry, 2022).
Where “and” joins values, the source holds several entries; their conditions need not be identical. Identical values can stand only once. Like-named read-outs stand apart in the source and are kept apart here.

Key:
[1] = target: human BCL6 BTB domain (Homo sapiens, UniProt P41182); assay: biochemical; conditions: for BCL6 TR-FRET mean pIC50: mean of replicates; for LE: ligand efficiency, 1.4*(pIC50)/HAC from TR-FRET; for LLE: lipophilic ligand efficiency from TR-FRET pIC50 and MoKa logD7.4
Description: 6. Supplementary tables … S-17
Table S1: summary statistics and individual replicate values … S-17 […]
1. Supplementary experimental: protein production, purification and crystallography 1.1 BCL6 constructs used for assays and crystallography
A first construct of BCL6 BTB domain, which we will refer to as Trx-6His-HRV3C-BCL6, was obtained […]
3C protease cleavage site. For the TR-FRET assay, the Trx-6His-HRV3C-BCL6 protein construct was […]
used without cleaving the tag, as a 6His was needed to bind to the anti-6His-Terbium antibody. […]
For both plasmid constructs described above, transformed BL21-AI E. coli cells were grown in LB […]
carried out at 18 °C for 18 hours. Cells were harvested by centrifugation (5500 g for 30 minutes at 4 […]
oC) and stored at -80 °C.
2. Supplementary experimental: biological assay conditions
IC50 values were determined using […]
a sigmoidal four-parameter logistic fit equation.
Individual replicates shown in supplementary

[2] = NMR kinetic solubility assay; assay type: physicochemical; conditions: kinetic solubility by NMR, HEPES buffer pH 8, 4% DMSO
Protocol: 3. Supplementary experimental: physicochemical assays
The plate was then sealed and incubated at room temperature for 20 hours, without shaking. The plate was centrifuged again for 1 minute at […]
spectrometer equipped with a 5 mm TCI-CryoProbe. […]
deuterated solvent. […] All NMR data were acquired at the […]
contained 16k time-domain data points. Relaxation delay was set to 20 sec. Water signal was […]
The quantification of the compound concentration was carried out using MestReNova

[3] = HPLC kinetic solubility assay; assay type: physicochemical; conditions: kinetic solubility by HPLC, 10 mM phosphate-buffered saline pH 7.4, 1% DMSO
Protocol: 3.2 HPLC solubility assay
DMSO. Following shaking of the suspension on a Bohdan Shaker at 500 rpm for 2 hours at room […]
200 µL of the supernatant was transferred to a 2 mL Agilent vial containing 50 µL of DMSO (Sigma […]
detection using an external standard which was prepared by pipetting 10 µL of the same batch of […]
The detail of the HPLC method is as following: chromatographic separation at 30°C is carried out over a 5 minute gradient elution method from 90:10 to 10:90 water:methanol (both modified with 0.1% formic acid) at a flow rate of 1.5 mL/min. Calibration curve is prepared by injecting 0.5, 2.5, and 5 µL of compound external standard.
62.5 µL of compound solubility sample. […]

[4] = PAMPA permeability; conditions: pH 7.4
[5] = BCL6 TR-FRET IC50 individual replicates, single replicates, 10 nM BCL6 for early examples, else 1 nM
[6] = read-out: BCL6 TR-FRET IC50, geometric mean of replicates
[7] = read-out: BCL6 TR-FRET IC50 individual replicates, single replicates, 10 nM BCL6 for early examples, else 1 nM
[8] = BCL6 TR-FRET IC50, geometric mean of replicates
[9] = BCL6 TR-FRET mean pIC50, mean of replicates

Compound	IC50 [1, 5]	BCL6 TR-FRET mean pIC50 [1]	IC50 [1, 6]	Aq. Sol [2]	other results
CCC1CCOc2c(c3cc(Nc4ccnc(Cl)c4C#N)ccc3n(C)c2=O)N1 (stereo not shown) [Compound 11b, 2-Chloro-4-((2-ethyl-7-methyl-6-oxo-1,2,3,4,6,7-hexahydro-[1,4]oxazepino[2,3-c]quinolin-10-yl)amino)nicotinonitrile]	454 nM and 496 nM and 1020 nM	6.21	612 nM and 610 nM	96 µM	
Cn1c(=O)c2c(c3cc(Nc4ccnc(Cl)c4C#N)ccc31)N[C@H](C1CC1)C(F)(F)CO2 [Compound 14, (R)-2-Chloro-4-((2-cyclopropyl-3,3-difluoro-7-methyl-6-oxo-1,2,3,4,6,7-hexahydro-[1,4]oxazepino[2,3-c]quinolin-10-yl)amino)nicotinonitrile]	615 nM and 397 nM	6.31	494 nM and 490 nM		
CC1CCc2c(c3cc(Nc4ccnc(Cl)c4C#N)ccc3n(C)c2=O)N1 (stereo not shown) [Compound 5b, 2-Chloro-4-((2,6-dimethyl-5-oxo-1,2,3,4,5,6-hexahydrobenzo[h][1,6]-naphthyridin-9-yl)amino)nicotinonitrile]	1030 nM and 960 nM and 1460 nM and 1670 nM and 6960 nM and 4820 nM	5.68	2080 nM and 2100 nM		Aq. Sol [3]: 1.8 µM
Cn1c(=O)c2c(c3cc(Nc4ccnc(Cl)c4C#N)ccc31)NCCCO2 [Compound 10, 2-Chloro-4-((7-methyl-6-oxo-1,2,3,4,6,7-hexahydro-[1,4]oxazepino[2,3-c]quinolin-10-yl)amino)nicotinonitrile]	15600 nM and 22400 nM	4.73	18700 nM and 19000 nM		Aq. Sol [3]: 12 µM
CC1COc2c(c3cc(Nc4ccnc(Cl)c4C#N)ccc3n(C)c2=O)N1 (stereo not shown) [Compound 6, 2-Chloro-4-((2,6-dimethyl-5-oxo-2,3,5,6-tetrahydro-1H-[1,4]oxazino[2,3-c]quinolin-9-yl)amino)nicotinonitrile]	1110 nM and 1390 nM and 1530 nM	5.88	1330 nM and 1300 nM		Aq. Sol [3]: 11 µM
Cn1c(=O)c2c(c3cc(Nc4ccnc(Cl)c4C#N)ccc31)NC(C1CCC1)CCO2 (stereo not shown) [Compound 11c, 2-Chloro-4-((2-cyclobutyl-7-methyl-6-oxo-1,2,3,4,6,7-hexahydro-[1,4]oxazepino[2,3-c]quinolin-10-yl)amino)nicotinonitrile]	3570 nM and 5260 nM	5.37	4310 nM and 4300 nM	26 µM	IC50 [1, 7]: 4270 nM
CC1CC(C)(C)Oc2c(c3cc(Nc4ccnc(Cl)c4C#N)ccc3n(C)c2=O)N1 (stereo not shown) [Compound 13b, 2-Chloro-4-((2,4,4,7-tetramethyl-6-oxo-1,2,3,4,6,7-hexahydro-[1,4]oxazepino[2,3-c]quinolin-10-yl)amino)nicotinonitrile]	8700 nM and 16500 nM and > 6600 nM			12 µM	IC50 [1, 8]: > 9800 nM
C[C@H]1COCc2c(c3cc(Nc4ccnc(Cl)c4C#N)ccc3n(C)c2=O)N1 [Compound 8, (S)-2-Chloro-4-((2,7-dimethyl-6-oxo-1,2,3,5,6,7-hexahydro-[1,4]oxazepino[6,5-c]quinolin-10-yl)amino)nicotinonitrile]	2350 nM	5.65	2240 nM and 2200 nM		IC50 [1, 7]: 2190 nM and 2180 nM
CCNc1c(C)c(=O)n(C)c2ccc(Nc3ccnc(Cl)c3C#N)cc12 [Compound 4, 2-Chloro-4-((4-(ethylamino)-1,3-dimethyl-2-oxo-1,2-dihydroquinolin-6-yl)amino)nicotinonitrile]	6090 nM and 4590 nM and 6040 nM	5.25	5580 nM and 5600 nM		IC50 [1, 7]: 5570 nM and 5760 nM
CC1Nc2c(c(=O)n(C)c3ccc(Nc4ccnc(Cl)c4C#N)cc23)OCC1(C)C (stereo not shown) [Compound 13c, 2-Chloro-4-((2,3,3,7-tetramethyl-6-oxo-1,2,3,4,6,7-hexahydro-[1,4]oxazepino[2,3-c]quinolin-10-yl)amino)nicotinonitrile]				31 µM	
C[C@H]1C[C@H](C)Oc2c(c3cc(Nc4ccnc(Cl)c4C#N)ccc3n(C)c2=O)N1 [Compound 13a, 2-Chloro-4-(((2S,4S)-2,4,7-trimethyl-6-oxo-1,2,3,4,6,7-hexahydro-[1,4]oxazepino[2,3-c]quinolin-10-yl)amino)nicotinonitrile]				114 µM	
N#Cc1c(Nc2ccc3[nH]c(=O)c4c(c3c2)NCCC4)ccnc1Cl [Compound 5a, 2-Chloro-4-((5-oxo-1,2,3,4,5,6-hexahydrobenzo[h][1,6]naphthyridin-9-yl)amino)nicotinonitrile]	7060 nM and 6930 nM and 3890 nM and 7370 nM	5.21	6120 nM and 6100 nM		Aq. Sol [3]: 12 µM
C[C@H]1COC(=O)c2c(c3cc(Nc4ccnc(Cl)c4C#N)ccc3n(C)c2=O)N1 [Compound 7, (S)-2-Chloro-4-((2,7-dimethyl-5,6-dioxo-1,2,3,5,6,7-hexahydro-[1,4]oxazepino[6,5-c]quinolin-10-yl)amino)nicotinonitrile]	153 nM and 151 nM and 56 nM and 58 nM	7.03	94 nM		IC50 [1, 7]: 98 nM; Papp ([4]; PAMPA): < 0.2 ×10⁻⁶ cm/s
CNC(=O)COc1cc2cc(Nc3nc(N4C[C@H](C)C[C@H](C)C4)ncc3Cl)ccc2n(C)c1=O [BI-3802, reference compound]	12 nM and 51 nM and 25 nM and 107 nM and 39 nM and 21 nM				IC50 [1, 9]: 33.1 nM; LE [1]: 0.31; LLE [1]: 3.98
C[C@@H]1CCOc2c(c3cc(Nc4ccnc(Cl)c4C#N)ccc3n(C)c2=O)N1 [Compound 9b, (R)-2-Chloro-4-((2,7-dimethyl-6-oxo-1,2,3,4,6,7-hexahydro-[1,4]oxazepino-[2,3-c]quinolin-10-yl)amino)nicotinonitrile]				190^+ μM	
Cn1c(=O)c2c(c3cc(Nc4ccnc(Cl)c4C#N)ccc31)NC(C(F)F)CCO2 (stereo not shown) [Compound 11e, 2-Chloro-4-((2-(difluoromethyl)-7-methyl-6-oxo-1,2,3,4,6,7-hexahydro-[1,4]oxazepino[2,3-c]quinolin-10-yl)amino)nicotinonitrile]	2150 nM and 1540 nM and 2500 nM	5.69	2020 nM and 2000 nM	119 µM	
CNC(=O)COc1cc2cc(Nc3nc(N4CCC(C(=O)N(C)C)CC4)ncc3Cl)cc(OC)c2n(C)c1=O [BI-3812, reference compound]	3 nM				IC50 [1, 9]: 3.02 nM; LE [1]: 0.31; LLE [1]: 6.76
CCNc1cc(=O)[nH]c2ccc(Nc3ccnc(Cl)c3C#N)cc12 [Compound 2]		5.88	1310 nM and 1300 nM		IC50 [1, 8]: 1200 nM; Aq. Sol [3]: 9.7 µM; PAMPA Pe (7.4) [4]: <0.1 × 10^–6 cm s^–1
CC1Nc2c(c(=O)n(C)c3ccc(Nc4ccnc(Cl)c4C#N)cc23)OCC12CC2 (stereo not shown) [Compound 13d, 2-Chloro-4-((2′,7′-dimethyl-6′-oxo-1′,2′,6′,7′-tetrahydro-4′H-spiro[cyclopropane-1,3′-[1,4]oxazepino[2,3-c]quinolin]-10′-yl)amino)nicotinonitrile]	1070 nM and 2070 nM and 1870 nM	5.8	1590 nM and 1600 nM	126 µM	
C[C@H]1CCOc2c(c3cc(Nc4ccnc(Cl)c4C#N)ccc3n(C)c2=O)N1 [Compound 9a, (S)-2-Chloro-4-((2,7-dimethyl-6-oxo-1,2,3,4,6,7-hexahydro-[1,4]oxazepino-[2,3-c]quinolin-10-yl)amino)nicotinonitrile]				200^+ μM and 199 μM	
CC(C)C1CCOc2c(c3cc(Nc4ccnc(Cl)c4C#N)ccc3n(C)c2=O)N1 (stereo not shown) [Compound 11d, 2-Chloro-4-((2-isopropyl-7-methyl-6-oxo-1,2,3,4,6,7-hexahydro-[1,4]oxazepino[2,3-c]quinolin-10-yl)amino)nicotinonitrile]	2410 nM and 3460 nM and 3640 nM	5.51	3120 nM and 3100 nM	40 µM	
